Data: patent publication US5972357A, “Healthy foods and cosmetics” (Kikkoman Corporation, priority 1996, dated 1999)
Counter-ions that a name gives are not always drawn. Like-named read-outs stand apart in the source and are kept apart here. Each block holds one compound with its values, some of them ahead of it.

Experiments:
[1] = system: bovine serum albumin; test: suppression of generation of reactive oxygen species in the presence of metal ion (oxidation of bovine serum albumin in Fenton reaction); type: biochemical; conditions: 1 mM test substance, 10 μM copper ion, 20 mM hydrogen peroxide, 4 mg/ml BSA
Protocol: The activity for suppressing the generation of reactive oxygen species in the presence of metal ion was evaluated by measuring the effect for suppressing the oxidation of bovine serum albumin by hydroxyl radical in the Fenton reaction system. That is to say, hydroxyl radical was first produced by divalent copper ion and hydrogen peroxide (Fenton reaction). Bovine serum albumin was oxidized by the hydroxyl radical, and thus carbonyl was produced. The carbonyl was reacted with 2,4-dinitrophenylhydrazine, and determined by measuring the absorbance at 365 nm. […] The ratio of decreases of absorbance was expressed as the activity for suppressing the generation of reactive oxygen species in the presence of metal ion.

[2] = superoxide scavenging activity test with phenazine methosulfate; conditions: 40 μM final concentration
Protocol: The active oxygen scavenging activity was evaluated according to the superoxide scavenging activity test with phenazine methosulfate. That is to say, dihydronicotinamide adenine dinucleotide and phenazine methosulfate were first reacted in a buffer at a physiological hydrogen ion concentration. The absorbance at 560 nm of a formazan pigment produced by the reduction of Nitro Blue Tetrazolium with superoxide was measured. […] The ratio of decreases of absorbance was expressed as superoxide scavenging activity.

[3] = anti-oxidation activity in a lipid oxidation process promoted by a metal ion (copper sulfate); conditions: 5 μM copper sulfate added; lesser ratio = stronger
Protocol: The anti-oxidation activities was evaluated according to the method by A. Ben Aziz et al. (see Phytochemistry, 10, 1445, 1971). That is to say, an emulsion of linoleic acid and β-carotene was first prepared with Tween 20 (Sigma) and adjusted to pH 7.0 with 0.1 M trishydroxyaminomethane-hydrochloride. To the emulsion was added 0.0005% of a substance to be tested, and the mixture was reacted at 25° C.
During the reaction, the color degradation of β-carotene in association with the autoxidation of linoleic acid was measured with the passage of time as the decreased value of the optical density at 460 nm with a spectrophotometer.
The substance to be tested was a garcinal preparation obtained in Referential Example 1, and vitamin E and (+)-catechin were used as Comparative Example. The antioxidant activity was measured as a ratio of the decreasing rate of absorbance in the presence of the substance to be tested to the decreasing rate of absorbance in the absence of the antioxidant. That is, the substance is judged to have an antioxidant activity when the ratio is less than 1, and thus it is predicated that the lesser the ratio, the stronger the antioxidant activity.
The oxidation process of linoleic acid in Experimental Example 1 is promoted by a metal ion. If 5 μM of copper sulfate is added to the reaction system, the color-degradation rate of β-carotene is promoted by about 30%. When garcinol was added to this system, the ratio of the decreasing rate of absorbance was 0.57. In this connection, it was 0.13 for vitamin E and 0.84 for (+)-catechin.

[4] = anti-oxidation activity (linoleic acid/β-carotene emulsion, autoxidation); conditions: 0.0005% test substance, pH 7.0, 25° C., 460 nm; lesser ratio = stronger
Protocol: The anti-oxidation activities was evaluated according to the method by A. Ben Aziz et al. […] That is to say, an emulsion of linoleic acid and β-carotene was first prepared with Tween 20 (Sigma) and adjusted to pH 7.0 with 0.1 M trishydroxyaminomethane-hydrochloride. […] During the reaction, the color degradation of β-carotene in association with the autoxidation of linoleic acid was measured with the passage of time as the decreased value of the optical density at 460 nm with a spectrophotometer. […] The antioxidant activity was measured as a ratio of the decreasing rate of absorbance in the presence of the substance to be tested to the decreasing rate of absorbance in the absence of the antioxidant.

[5] = DPPH radical scavenging activity; conditions: 0.0002% test substance, 1.0×10^-4 M DPPH, 25° C., 1 hour, 528 nm
Protocol: The 1,1-diphenyl-2-picrylhydrazyl (DPPH) radical scavenging activity was tested with a garcinol preparation prepared in the similar manner as described in Referential Example 1. That is to say, a 1.0×10^-4 M solution (50% ethanolic) of DPPH was prepared, 0.0002% of a test substance was added, and the decrease of optical density at 528 nm was measured after 1 hour reaction at 25° C. for one hour. In this case, ascorbic acid was used as a standard, the decrease of the absorbance was expressed as 100, and the radical scavenging activity of the test substance was measured as equivalences to ascorbic acid. In this connection, a garcinol preparaion used as the test substance, and vitamin E and (+)-catechin were used as references.

[6] = system: bovine serum albumin; test: Maillard reaction inhibiting activity (bovine serum albumin/D-fructose)
Protocol: (§3) A solution containing bovine serum albumin (4 mg/ml), 500 mM D-fructose and 200 mM potassium phosphate buffer (pH 7.4) was aseptically prepared. To the solution was added 0.1 mM of a test substance. The substance insoluble in water was added as an ethanolic solution so as the final concentration of ethanol to be less than 1%. After incubation of these solutions at 37° C. for 5 days, equivalent volume of a cold 10% trichloroacetic acid solution was added to the solution to precipitate proteins. The precipitate was collected by centrifugation, further washed with a cold 5% trichloroacetic acid solution, and dissolved again in a 200 mM potassium phosphate buffer. The solution was diluted appropriately with distilled water, and the fluorescence intensity at 425 nm was measured with an excitation wave length at 350 nm in a fluorescence spectrophotometer (Shimadzu Seisakusho, Ltd.). The inhibition activity was calculated from the following equation.
(§4) Inhibition activity (%)=(Fc-Fs)/(Fc-Fb)×100
(§5) Fs: fluorescence intensity in the presence of test substance;
(§6) Fc: fluorescence intensity in the absence of test substance;
(§7) Fb: fluorescence intensity in the absence of fructose.

[7] = system: bovine serum albumin; conditions: bovine serum albumin/d-fructose, 120 h, 1000 µM, pH 7.4
Protocol: as §3, §4, §5, §6, §7

[8] = system: gastric ulcer; test: anti-ulcer test against indomethacin-induced gastric ulcer; type: in vivo, Wistar/ST male rats; conditions: 200 mg/kg oral; for Length of ulcer: 30 minutes before indomethacin (50 mg/kg s.c.), control 47.75 ± 6.08; for Suppression rate: indomethacin ulcer, vs. control
Protocol: Ulcer was induced in Wistar/ST male rats having a weight of about 200 g (6 week-old) by indomethacin as a gastric ulcer inducing agent, and the anti-ulcer effects of the test samples were examined in the following six groups to which test samples were administered.
(§1) Each group comprises six rats.
______________________________________
(§2) Group 1: (control) physiological saline
Group 2: (comparative) cetraxate hydrochloride
Group 3: (the present invention) garcinol
Group 4: (the present invention) garcinol
Group 5: (the present invention) garcinol
Group 6: (the present invention) isogarcinol
In this connection, physiological saline containing 1% sodium carboxymethylcellulose was used as the control, and cetraxate hydrochloride (trade name "Neuer®S", Daiichi Pharmaceuticals Co., Ltd.) which is clinically used as an anti-ulcer agent was used as the comparative sample. The cetraxate hydrochloride insoluble in water was ground into fine powder with a mortar and a pestle and used as a suspension in a 1% sodium carboxymethylcellulose solution. Also, garcinol and isogarcinol in the form of fine powder were used as the suspensions in a 1% sodium carboxymethylcellulose solution in the concentrations which are the doses in the groups. In this connection, garcinol and isogarcinol used in the section of the present invention were those obtained in Referential Examples 1 and 2, respectively.
Experiment was carried out according to the method described by Yamahara et al. (see […] ZASSHI, 114, 401, 1994) which had been slightly modified. That is to say, indomethacin (50 mg/kg) was suspended in 1% sodium carboxymethylcellulose containing 0.1% Tween 20 (Sigma) and injected subcutaneously into the back of 24 hour fasted rats in an amount of 1 ml/rat. The samples in the six sections were orally administered at 30 minutes before administration of indomethacin. After 7 hours from the administration of indomethacin, rats were bleeded to death under anesthetization with nembutal, and stomach was isolated. A phosphate buffer (10 ml) containing 10% formalin was injected into the stomach, which was cut open after 10 minutes, and the length of lesion caused in the glandular stomach portion was defined as the lesion index, which was measured in the mm unit to evaluate the anti-ulcer effect. The suppression rate (%) in Table 1 means the value in which the difference of the length (mm) of ulcer in each group subtracted from the average length, 47.75 (mm) of ulcer in the control was divided with the average length, 47.75 (mm) of ulcer in the control. The larger the value, the stronger the anti-ulcer activity.

[9] = system: gastric ulcer; test: anti-ulcer test against stress ulcer (restrained immersion into water); type: in vivo, Wistar/ST male rats; conditions: 200 mg/kg oral
Protocol: Gastric ulcer was induced in Wistar/ST male rats having a weight of about 200 g (6 w) by the stress of restrained immersion into water and the anti-ulcer effects of the test samples were examined in the following groups to which test samples were administered.
as §1, §2
Group 2: (comparative) cetraxate hydrochloride 200 mg/kg
Group 3: (the present invention) garcinol 200 mg/kg
In this connection, the test samples in the control, comparative group and the present invention group were prepared in the same manner as in Experimental Example 9.
Rats having fasted for 24 hours were locked up in a restrained dipping cage after 30 minutes from the oral administration of respective test samples. Next, rats were stressed by dipping the cage into water at 23° C. for 7 hours, and bleeded to death under anesthetization with nembutal, and stomach was isolated. A phosphate buffer (10 ml) containing 10% formalin was injected into the stomach, which was cut open after 10 minutes, and the length of lesion caused in the glandular stomach portion was defined as the lesion index, which was measured in the mm unit to evaluate the anti-ulcer effect.
The method for calculating the suppression rate (%) and the meaning of it has been described in Experimental Example 9.

[10] = system: bovine lens α-crystallin; test: α-crystallin crosslinking polymerization inhibiting activity; type: biochemical; conditions: 0.1 mM, 500 mM D-fructose, pH 7.4, 37° C., 2 weeks
Protocol: The effect of garcinol on bovine lens α-crystallin crosslinking polymerization reaction was evaluated. […] The gel after electrophoresis was stained with Coomassie Brilliant Blue, and the protein amounts in bands were determined with a densitometer. The crosslinking polymerization inhibiting activity of the protein was calculated from the following equation.
Protein polymerization inhibiting activity (%)=(Ps-Pc)/Pc×100
polymerization degree of protein=band density of polymerized protein/band density of monomer protein;
Ps: polymerization degree of protein in the presence of test substance;
Pc: polymerization degree of protein in the absence of test substance.

Compound: Oc1cc(O)c2c(c1)O[C@H](c1ccc(O)c(O)c1)[C@@H](O)C2 [(+)-catechin]
oxidation of bovine serum albumin, result in words [1]: promoted oxidation rather extensively
superoxide scavenging rate [2]: 25%
ratio of the decreasing rate of absorbance (antioxidant activity with metal ion) [3]: 0.84
antioxidant activity (ratio of the decreasing rate of absorbance with to without test substance) [4]: 0.18
DPPH radical scavenging activity (equivalences to ascorbic acid = 100) [5]: 73

Compound: N=C(N)NN [Aminoguanidine]
Maillard reaction inhibition activity, result in words ([6]; 0.1 mM, 37° C., 5 days, pH 7.4): no activity
Maillard reaction inhibition activity ([6]; 1 mM, 7200 min): no more than 43%

Maillard reaction inhibition activity [7]: 27%
Compound: CC(C)(S)[C@@H](N)C(=O)O [D-penicillamine]

Compound: NC[C@H]1CC[C@H](C(=O)Oc2ccc(CCC(=O)O)cc2)CC1 [cetraxate hydrochloride, reference compound]
Length of ulcer [8]: 14.30 ± 10.9 mm
Suppression rate [8]: 70.1%
Length of ulcer ([9]; restrained water immersion 23° C., 7 hours, control 44.20 ± 18.10): 18.80 ± 6.02 mm
Suppression rate ([9]; stress ulcer, vs. control): 57.5%

Compound: CC(C)=CC[C@H]1C[C@@]23C[C@@H](CC=C(C)C)C(C)(C)[C@@](CC=C(C)C)(C(=O)C(C(=O)c4ccc(O)c(O)c4)=C2OC1(C)C)C3=O [isogarcinol]
Length of ulcer [8]: 22.40 ± 15.3 mm
Suppression rate [8]: 53.1%

Compound: O=c1c(O)c(-c2ccc(O)c(O)c2)oc2cc(O)cc(O)c12 [quercetin]
oxidation of bovine serum albumin, result in words [1]: promoted oxidation rather extensively
superoxide scavenging rate [2]: 63%
protein polymerization inhibiting activity [10]: 33%

Compound: vitamin E
ratio of the decreasing rate of absorbance (antioxidant activity with metal ion) [3]: 0.13
antioxidant activity (ratio of the decreasing rate of absorbance with to without test substance) [4]: 0.10
DPPH radical scavenging activity (equivalences to ascorbic acid = 100) [5]: 25
